Experimental data taken from patent publication US20090191253A2 (Creabilis Therapeutics S.P.A., priority 2005, published 2009).

Legend:
SRC = biological target: T1, SRC (Homo sapiens, UniProt P12931); test: Kinase inhibition profiling SRC (ELISA); type: biochemical
T1 construct: made in house; host or cells: baculovirus expression system
Protocol: (§1) Each test compound was weighed and dissolved in DMSO to make 1 mM stock solution. The stock solution was diluted with DMSO to achieve 20 μM. The compound solution was diluted with the assay buffer to achieve 0.8 μM.

MAPKAPK2 = biological target: T2, MAPKAPK2 (Homo sapiens, UniProt P49137); test: Kinase inhibition profiling MAPKAPK2 (IMAP); type: biochemical
T2 construct: His (N); made in house; host or cells: baculovirus expression system
T2 sequence (P49137 whole entry): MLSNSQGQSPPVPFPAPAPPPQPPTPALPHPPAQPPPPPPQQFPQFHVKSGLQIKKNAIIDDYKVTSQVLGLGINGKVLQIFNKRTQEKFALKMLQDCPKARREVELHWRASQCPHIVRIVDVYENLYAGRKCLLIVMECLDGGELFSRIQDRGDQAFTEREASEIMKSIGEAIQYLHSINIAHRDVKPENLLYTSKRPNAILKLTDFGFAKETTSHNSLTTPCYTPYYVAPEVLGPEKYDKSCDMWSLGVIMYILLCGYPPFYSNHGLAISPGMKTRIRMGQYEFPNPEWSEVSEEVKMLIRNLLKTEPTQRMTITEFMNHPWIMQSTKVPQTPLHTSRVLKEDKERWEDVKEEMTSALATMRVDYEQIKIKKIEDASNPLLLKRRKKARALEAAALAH
Protocol: as §1

PKACα = biological target: T3, PKACα (Homo sapiens, UniProt P17612); test: Kinase inhibition profiling PKACα (IMAP); type: biochemical
T3 construct: made in house; host or cells: baculovirus expression system
Protocol: (§2) In particular, the target kinases were Tyrosine kinases and Serine/Threonine kinases.
as §1

JAK2 = biological target: T4, JAK2 (Homo sapiens, UniProt O60674); test: Kinase inhibition profiling JAK2 (ELISA); type: biochemical
T4 construct: Kinase domain (KD) of human JAK2 [826-1132 amino; made in house; host or cells: baculovirus expression system
Protocol: as §1

RET = biological target: T5, RET (Homo sapiens, UniProt P07949); test: Kinase inhibition profiling RET (ELISA); type: biochemical; note: ATP 5 µM
T5 construct: Cytoplasmic domain of human RET [658-1114 amino acids; made in house; host or cells: baculovirus expression system
T5 sequence (P07949 658-1114): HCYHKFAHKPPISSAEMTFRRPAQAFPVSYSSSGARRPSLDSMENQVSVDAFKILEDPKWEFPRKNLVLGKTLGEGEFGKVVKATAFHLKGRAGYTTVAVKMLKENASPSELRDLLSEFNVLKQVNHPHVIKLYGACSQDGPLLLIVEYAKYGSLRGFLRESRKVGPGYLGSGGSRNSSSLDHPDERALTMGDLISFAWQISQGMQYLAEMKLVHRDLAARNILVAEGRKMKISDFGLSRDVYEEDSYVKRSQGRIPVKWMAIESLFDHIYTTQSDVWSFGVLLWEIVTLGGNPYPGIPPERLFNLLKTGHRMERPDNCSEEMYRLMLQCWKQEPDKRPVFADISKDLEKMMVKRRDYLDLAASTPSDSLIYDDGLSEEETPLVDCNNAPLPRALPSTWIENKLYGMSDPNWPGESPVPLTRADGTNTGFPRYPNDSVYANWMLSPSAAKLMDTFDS
Protocol: as §1

BLK = biological target: T6, BLK (Homo sapiens, UniProt P51451); test: Kinase inhibition profiling BLK (ELISA); type: biochemical
T6 construct: made in house; host or cells: baculovirus expression system
Protocol: as §1

TrkC = TrkC (Homo sapiens, UniProt Q16288); test: Kinase inhibition profiling TrkC (ELISA)
Protocol: as §2, §1

IRAK4 = biological target: T7, IRAK4 (Homo sapiens, UniProt Q9NWZ3); test: Kinase inhibition profiling IRAK4 (IMAP); type: biochemical; note: ATP 80 µM
T7 construct: Kinase domain (KD) of Human IRAK4 [172-460 amino; GST (N); made in house; host or cells: baculovirus expression system
Protocol: as §1

AXL = biological target: T8, AXL (Homo sapiens, UniProt P30530); test: Kinase inhibition profiling AXL (ELISA); type: biochemical
T8 construct: made in house; host or cells: baculovirus expression system
Protocol: as §2, §1

LCK = biological target: T9, LCK (Homo sapiens, UniProt P06239); test: Kinase inhibition profiling LCK (ELISA); type: biochemical
T9 construct: made in house; host or cells: baculovirus expression system
T9 sequence (P06239 whole entry): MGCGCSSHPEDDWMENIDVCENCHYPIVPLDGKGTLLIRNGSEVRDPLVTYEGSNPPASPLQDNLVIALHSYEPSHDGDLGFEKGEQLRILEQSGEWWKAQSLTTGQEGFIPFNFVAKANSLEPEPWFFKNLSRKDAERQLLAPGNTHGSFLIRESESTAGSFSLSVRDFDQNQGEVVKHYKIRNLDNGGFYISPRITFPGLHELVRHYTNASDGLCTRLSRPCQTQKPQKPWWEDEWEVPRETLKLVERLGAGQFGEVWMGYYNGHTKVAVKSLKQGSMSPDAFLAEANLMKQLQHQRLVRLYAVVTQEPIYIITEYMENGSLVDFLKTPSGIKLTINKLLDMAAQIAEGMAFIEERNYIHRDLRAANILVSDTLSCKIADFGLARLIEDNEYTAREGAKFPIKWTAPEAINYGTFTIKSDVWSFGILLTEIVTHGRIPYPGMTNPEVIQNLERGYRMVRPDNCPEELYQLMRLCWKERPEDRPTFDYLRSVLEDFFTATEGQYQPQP
Protocol: as §2, §1

KDR = biological target: T10, KDR (Homo sapiens, UniProt P35968); test: Kinase inhibition profiling KDR (ELISA); type: biochemical
T10 construct: Cytoplasmic domain of human KDR [790-1356 amino; made in house; host or cells: baculovirus expression system
T10 sequence (P35968 790-1356): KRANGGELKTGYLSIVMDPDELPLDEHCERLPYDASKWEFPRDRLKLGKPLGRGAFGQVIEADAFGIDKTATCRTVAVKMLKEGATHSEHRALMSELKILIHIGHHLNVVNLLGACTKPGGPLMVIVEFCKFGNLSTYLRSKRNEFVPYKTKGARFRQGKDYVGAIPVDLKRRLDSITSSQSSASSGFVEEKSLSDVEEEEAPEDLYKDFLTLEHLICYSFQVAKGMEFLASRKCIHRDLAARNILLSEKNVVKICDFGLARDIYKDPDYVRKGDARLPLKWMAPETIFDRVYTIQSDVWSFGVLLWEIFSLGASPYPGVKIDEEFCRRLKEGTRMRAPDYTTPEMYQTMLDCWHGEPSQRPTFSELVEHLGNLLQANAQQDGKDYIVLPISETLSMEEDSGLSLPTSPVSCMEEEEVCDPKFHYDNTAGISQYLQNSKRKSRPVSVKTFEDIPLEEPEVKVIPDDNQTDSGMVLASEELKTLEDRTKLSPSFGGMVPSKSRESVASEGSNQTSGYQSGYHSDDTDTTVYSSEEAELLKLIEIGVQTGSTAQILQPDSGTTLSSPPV
Protocol: as §2, §1

FYN = biological target: T11, FYN (Homo sapiens, UniProt P06241); test: Kinase inhibition profiling FYN (ELISA); type: biochemical; note: ATP 20 µM
T11 construct: made in house; host or cells: baculovirus expression system
T11 sequence (P06241 whole entry): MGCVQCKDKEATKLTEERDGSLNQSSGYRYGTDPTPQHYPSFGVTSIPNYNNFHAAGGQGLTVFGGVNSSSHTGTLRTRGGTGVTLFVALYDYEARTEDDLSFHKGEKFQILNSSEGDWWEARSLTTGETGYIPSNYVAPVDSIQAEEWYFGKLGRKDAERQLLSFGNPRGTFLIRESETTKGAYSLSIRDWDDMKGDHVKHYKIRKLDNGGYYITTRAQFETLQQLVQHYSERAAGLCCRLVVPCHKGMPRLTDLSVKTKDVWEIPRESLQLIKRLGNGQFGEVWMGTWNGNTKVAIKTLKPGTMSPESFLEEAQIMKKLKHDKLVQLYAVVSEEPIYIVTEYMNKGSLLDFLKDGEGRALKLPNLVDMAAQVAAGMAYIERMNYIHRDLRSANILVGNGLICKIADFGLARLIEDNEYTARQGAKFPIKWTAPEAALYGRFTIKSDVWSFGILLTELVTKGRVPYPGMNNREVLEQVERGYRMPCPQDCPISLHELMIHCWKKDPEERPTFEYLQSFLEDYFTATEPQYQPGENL
Protocol: as §2, §1

Erk1 = biological target: T12, Erk1 (Homo sapiens, UniProt P27361); test: Kinase inhibition profiling Erk1 (IMAP); type: biochemical
T12 construct: Human Erk1 containing 379 amino acids was expressed; His (N); made in house; host or cells: E. coli
T12 sequence (P27361 whole entry): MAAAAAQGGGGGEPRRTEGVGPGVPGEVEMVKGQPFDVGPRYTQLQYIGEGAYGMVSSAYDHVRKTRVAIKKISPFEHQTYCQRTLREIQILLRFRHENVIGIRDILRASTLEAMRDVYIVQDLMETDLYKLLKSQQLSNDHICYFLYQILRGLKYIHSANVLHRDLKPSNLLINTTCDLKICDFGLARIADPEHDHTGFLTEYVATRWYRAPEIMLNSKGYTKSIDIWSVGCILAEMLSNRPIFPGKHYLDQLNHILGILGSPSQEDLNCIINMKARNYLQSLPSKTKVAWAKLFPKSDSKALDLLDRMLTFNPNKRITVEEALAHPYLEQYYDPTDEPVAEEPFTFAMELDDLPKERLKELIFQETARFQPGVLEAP
Protocol: as §1

CaMK4 = biological target: T13, CaMK4 (Homo sapiens, UniProt Q16566); test: Kinase inhibition profiling CaMK4 (IMAP); type: biochemical
T13 construct: His (N); made in house; host or cells: baculovirus expression system
Protocol: as §2, §1

TNK1 = biological target: T14, TNK1 (Homo sapiens, UniProt Q13470); test: Kinase inhibition profiling TNK1 (ELISA); type: biochemical
T14 construct: Kinase domain (KD) of human TNK [110-394 amino; made in house; host or cells: baculovirus expression system
Protocol: as §2, §1

SRM = biological target: T15, SRM (Homo sapiens, UniProt Q9H3Y6); test: Kinase inhibition profiling SRM (ELISA); type: biochemical
T15 construct: Kinase domain (KD) of human SRM [215-489 amino acids; made in house; host or cells: baculovirus expression system
Protocol: as §1

IGF1R = biological target: T16, IGF1R (Homo sapiens, UniProt P08069); test: Kinase inhibition profiling IGF1R (ELISA); type: biochemical
T16 construct: Cytoplasmic domain of human IGF1R [959-1367 amino; made in house; host or cells: baculovirus expression system
Protocol: as §1

[1] = test system: bovine aorta smooth muscle cells (BASMC); test: Proliferation assay, HMGB1-induced BASMC proliferation; type: cell-based; details: K-252a 3, 10, 30, 100 or 300 nM; HMGB1 25 ng/ml (1 nM); days 1-4
Protocol: Proliferation assays were performed using an already described and validated method (1). BASMC cells (bovine aorta smooth muscle cells) were seeded in 6-well plates (10^5 cells/well) and grown in RPMI medium supplemented with 20% FCS. After 24 h, the medium was replaced with serum-free RPMI and cell were then starved for 16 hours to synchronize the cell population. […] Each experimental point represents the mean+/−SD of triplicate determinations. The experiment was repeated three times. BASMC cell proliferation was determined by detaching the cells from the plate at the indicated times (on days 1, 2, 3, and 4 of culturing) and counting the Trypan-blue excluding cells under the microscope.

FGR = biological target: T17, FGR (Homo sapiens, UniProt P09769); test: Kinase inhibition profiling FGR (ELISA); type: biochemical; note: ATP 5 µM
T17 construct: His (N, cleaved yes); made in house; host or cells: baculovirus expression system
Protocol: as §2, §1

KIT = biological target: T18, KIT (Homo sapiens, UniProt P10721); test: Kinase inhibition profiling KIT (ELISA); type: biochemical
T18 construct: made in house; host or cells: baculovirus expression system
T18 sequence (P10721 544-976): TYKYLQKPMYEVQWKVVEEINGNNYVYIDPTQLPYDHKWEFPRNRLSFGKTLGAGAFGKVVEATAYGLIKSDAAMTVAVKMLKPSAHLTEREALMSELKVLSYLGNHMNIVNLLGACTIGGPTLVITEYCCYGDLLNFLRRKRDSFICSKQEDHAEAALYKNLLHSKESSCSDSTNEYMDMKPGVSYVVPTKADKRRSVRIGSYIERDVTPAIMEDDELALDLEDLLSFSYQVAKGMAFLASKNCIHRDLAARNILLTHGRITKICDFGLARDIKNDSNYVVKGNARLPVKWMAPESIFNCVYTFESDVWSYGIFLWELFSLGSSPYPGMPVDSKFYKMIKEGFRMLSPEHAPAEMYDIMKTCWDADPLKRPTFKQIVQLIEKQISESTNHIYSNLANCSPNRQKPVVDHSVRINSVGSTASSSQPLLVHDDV
Protocol: as §1

HMGB1 = biological target: T19, HMGB1 (Homo sapiens, UniProt P09429); test: Protein binding experiments by circular dichroism (CD); details: assuming 1:1 stoichiometry binding
T19 construct: host or cells: bacteria (inferred from the mention of bacterial contaminants)
Excerpt: All CD spectra were collected on a Jasco J710 spectropolarimeter equipped with a NesLab RTE111 thermal controller unity, using a quartz cylindrical cuvette with a 1 cm path length (Jasco). A scan speed of 20 nm/min, a bandwidth of o 1 nm, and a resolution of 1 nm was always used.
The spectra are heavily disturbed more than likely due to DMF.

JNK2 = biological target: T20, JNK2 (Homo sapiens, UniProt P45984); test: Kinase inhibition profiling JNK2 (ELISA); type: biochemical; note: ATP 5 µM
T20 construct: Human JNK2 containing 424 amino acids was expressed; His (C); made in house; host or cells: E. coli
Protocol: as §1

FLT3 = biological target: T21, FLT3 (Homo sapiens, UniProt P36888); test: Kinase inhibition profiling FLT3 (ELISA); type: biochemical
T21 construct: made in house; host or cells: baculovirus expression system
Protocol: as §1

AurA = biological target: T22, AurA (Homo sapiens, UniProt O14965); test: Kinase inhibition profiling AurA (IMAP); type: biochemical
T22 construct: GST (N); made in house; host or cells: baculovirus expression system
T22 sequence (O14965 whole entry): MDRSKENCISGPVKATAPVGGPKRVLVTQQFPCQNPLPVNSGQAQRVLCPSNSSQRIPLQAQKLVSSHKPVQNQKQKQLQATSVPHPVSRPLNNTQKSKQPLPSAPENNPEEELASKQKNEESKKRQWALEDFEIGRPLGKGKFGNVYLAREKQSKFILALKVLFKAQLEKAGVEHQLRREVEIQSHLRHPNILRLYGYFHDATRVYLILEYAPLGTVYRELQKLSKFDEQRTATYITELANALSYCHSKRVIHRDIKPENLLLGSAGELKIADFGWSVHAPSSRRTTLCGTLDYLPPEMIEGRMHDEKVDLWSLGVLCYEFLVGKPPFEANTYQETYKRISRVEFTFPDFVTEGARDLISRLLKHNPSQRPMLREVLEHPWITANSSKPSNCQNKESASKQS
Protocol: as §1

FGFR1 = biological target: T23, FGFR1 (Homo sapiens, UniProt P11362); test: Kinase inhibition profiling FGFR1 (ELISA); type: biochemical
T23 construct: Cytoplasmic domain of human FGFR1 [396-820 amino; made in house; host or cells: baculovirus expression system
Protocol: as §1

EGFR = biological target: T24, EGFR (Homo sapiens, UniProt P00533); test: Kinase inhibition profiling EGFR (ELISA); type: biochemical; note: ATP 5 µM
T24 construct: Cytoplasmic domain of human EGFR [669-1210 amino; made in house; host or cells: baculovirus expression system
T24 sequence (P00533 669-1210): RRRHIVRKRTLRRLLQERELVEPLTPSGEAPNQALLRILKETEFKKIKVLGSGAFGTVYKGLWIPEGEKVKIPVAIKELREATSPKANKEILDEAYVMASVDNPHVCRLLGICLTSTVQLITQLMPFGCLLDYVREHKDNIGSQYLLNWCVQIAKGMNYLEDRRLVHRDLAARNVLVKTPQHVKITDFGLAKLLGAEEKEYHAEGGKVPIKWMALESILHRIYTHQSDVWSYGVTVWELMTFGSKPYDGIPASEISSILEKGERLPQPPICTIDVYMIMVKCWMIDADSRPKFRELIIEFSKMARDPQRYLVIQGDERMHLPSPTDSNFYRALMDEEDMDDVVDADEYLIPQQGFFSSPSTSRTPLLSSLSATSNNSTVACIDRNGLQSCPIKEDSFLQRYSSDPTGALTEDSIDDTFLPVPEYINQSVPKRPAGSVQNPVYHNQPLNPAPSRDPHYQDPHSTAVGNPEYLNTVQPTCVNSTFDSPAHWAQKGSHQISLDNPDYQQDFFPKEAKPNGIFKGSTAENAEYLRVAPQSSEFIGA
Protocol: as §1

YES = biological target: T25, YES (Homo sapiens, UniProt P07947); test: Kinase inhibition profiling YES (ELISA); type: biochemical
T25 construct: made in house; host or cells: baculovirus expression system
T25 sequence (P07947 whole entry): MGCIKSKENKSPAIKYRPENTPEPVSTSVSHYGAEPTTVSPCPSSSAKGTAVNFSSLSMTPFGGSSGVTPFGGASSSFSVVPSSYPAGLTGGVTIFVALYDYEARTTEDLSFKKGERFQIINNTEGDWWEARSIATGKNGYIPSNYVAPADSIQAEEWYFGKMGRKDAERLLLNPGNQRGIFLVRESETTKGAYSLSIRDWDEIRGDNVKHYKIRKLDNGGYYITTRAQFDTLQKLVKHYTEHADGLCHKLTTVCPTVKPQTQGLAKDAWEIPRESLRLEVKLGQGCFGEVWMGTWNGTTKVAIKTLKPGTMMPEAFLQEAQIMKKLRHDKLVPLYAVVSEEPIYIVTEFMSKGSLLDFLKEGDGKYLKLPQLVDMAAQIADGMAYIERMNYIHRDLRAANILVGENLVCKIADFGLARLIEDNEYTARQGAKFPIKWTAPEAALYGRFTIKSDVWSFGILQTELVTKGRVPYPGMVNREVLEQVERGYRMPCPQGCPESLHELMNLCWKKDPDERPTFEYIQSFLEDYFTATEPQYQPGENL
Protocol: as §2, §1

**Q.** For COC(=O)[C@]1(O)CC2O[C@@]1(C)n1c3ccccc3c3c4c(c5c6ccccc6n2c5c31)C(=O)NC4 [K-252a], which inhibition at 0.2 µM (SRC) is on record?
**A.** Its inhibition at 0.2 µM is 20.6%.

**Q.** And the inhibition at 0.2 µM (MAPKAPK2)?
**A.** The inhibition at 0.2 µM was 44.3%.

**Q.** What about the inhibition at 0.2 µM (PKACα) of the same compound?
**A.** Its inhibition at 0.2 µM is 69.4%.

**Q.** And the inhibition at 0.2 µM (JAK2)?
**A.** Its inhibition at 0.2 µM is 99.5%.

**Q.** And the inhibition at 0.2 µM (RET)?
**A.** Its inhibition at 0.2 µM is 94.2%.

**Q.** And the inhibition at 0.2 µM (BLK)?
**A.** Its inhibition at 0.2 µM is 83.5%.

**Q.** What about the inhibition at 0.2 µM (TrkC) of the same compound?
**A.** The inhibition at 0.2 µM was 94.4%.

**Q.** And the inhibition at 0.2 µM (IRAK4)?
**A.** The inhibition at 0.2 µM was 51.9%.

**Q.** And the inhibition at 0.2 µM (AXL)?
**A.** The inhibition at 0.2 µM was 51.5%.

**Q.** What about the inhibition at 0.2 µM (LCK) of the same compound?
**A.** Its inhibition at 0.2 µM is 65.2%.

**Q.** What about the inhibition at 0.2 µM (KDR) of the same compound?
**A.** The inhibition at 0.2 µM was 62.9%.

**Q.** What about the inhibition at 0.2 µM (FYN) of the same compound?
**A.** Its inhibition at 0.2 µM is 67.2%.

**Q.** What about the inhibition at 0.2 µM (Erk1) of the same compound?
**A.** Its inhibition at 0.2 µM is 32%.

**Q.** And the inhibition at 0.2 µM (CaMK4)?
**A.** Its inhibition at 0.2 µM is 0%.

**Q.** What about the inhibition at 0.2 µM (TNK1) of the same compound?
**A.** The inhibition at 0.2 µM was 94.8%.

**Q.** What about the inhibition at 0.2 µM (SRM) of the same compound?
**A.** The inhibition at 0.2 µM was 0.4%.

**Q.** What about the inhibition at 0.2 µM (IGF1R) of the same compound?
**A.** Its inhibition at 0.2 µM is 40.6%.

**Q.** What about the “HMGB1-induced BASMC cell proliferation” value [1] of the same compound?
**A.** Its value is “antagonizes BASMC cell proliferation at all the concentrations tested in a time-dependent fashion and in a nM range”.

**Q.** What about the inhibition at 0.2 µM (FGR) of the same compound?
**A.** The inhibition at 0.2 µM was 85.6%.

**Q.** And the inhibition at 0.2 µM (KIT)?
**A.** Its inhibition at 0.2 µM is 87.3%.

**Q.** What about the Kd (HMGB1) of the same compound?
**A.** The Kd was roughly 2000 nM.

**Q.** And the inhibition at 0.2 µM (JNK2)?
**A.** The inhibition at 0.2 µM was 91.4%.

**Q.** And the inhibition at 0.2 µM (FLT3)?
**A.** The inhibition at 0.2 µM was 95.8%.

**Q.** And the inhibition at 0.2 µM (AurA)?
**A.** The inhibition at 0.2 µM was 91.9%.

**Q.** What about the inhibition at 0.2 µM (FGFR1) of the same compound?
**A.** The inhibition at 0.2 µM was 57.9%.

**Q.** What about the inhibition at 0.2 µM (EGFR) of the same compound?
**A.** The inhibition at 0.2 µM was 16.4%.

**Q.** And the inhibition at 0.2 µM (YES)?
**A.** The inhibition at 0.2 µM was 65.1%.
